Results from ChEMBL document CHEMBL1137823, “Building predictive models for protein tyrosine phosphatase 1B inhibitors based on discriminating structural features by reassembling medicinal chemistry building blocks” (J Med Chem, 2004).

Target: T1, Tyrosine-protein phosphatase non-receptor type 1 (Homo sapiens, UniProt P18031)
T1 sequence (P18031 whole entry): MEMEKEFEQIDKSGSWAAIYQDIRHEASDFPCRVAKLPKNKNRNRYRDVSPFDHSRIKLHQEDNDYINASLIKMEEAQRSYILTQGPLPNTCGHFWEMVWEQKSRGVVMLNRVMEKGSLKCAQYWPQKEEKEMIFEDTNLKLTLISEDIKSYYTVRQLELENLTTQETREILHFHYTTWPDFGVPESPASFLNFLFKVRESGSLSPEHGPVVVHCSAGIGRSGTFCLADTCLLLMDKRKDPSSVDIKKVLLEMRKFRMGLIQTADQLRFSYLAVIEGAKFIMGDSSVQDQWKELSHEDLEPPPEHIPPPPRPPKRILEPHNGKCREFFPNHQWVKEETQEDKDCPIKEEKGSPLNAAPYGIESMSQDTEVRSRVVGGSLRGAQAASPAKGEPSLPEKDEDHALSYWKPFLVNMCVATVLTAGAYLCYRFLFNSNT
Assay: Concentration required for 50% inhibition of tyrosine phosphatase 1B

CCCC[C@@H](Oc1c(Br)cc(-c2ccc(-c3c(Cc4ccccc4)oc4ccccc34)cc2)cc1Br)C(=O)O
IC50: 52.5 nM

O=C(O)[C@@H](Cc1ccccc1)Oc1ccc(-c2ccc(-c3nc4ccccc4n3Cc3ccccc3)cc2)cc1
IC50: 437 nM

O=C(O)[C@@H](Cc1ccccc1)Oc1ccc(-c2ccc(-c3nc4cccnc4n3Cc3ccccc3)cc2)cc1
IC50: 214 nM

O=C(O)[C@H](Cc1ccccc1)Oc1ccc(-c2ccc(-c3c(Cc4ccc(F)cc4)oc4ccccc34)cc2)cc1
IC50: 603 nM

COC(=O)[C@H](Cc1ccccc1)Oc1ccc(-c2ccc(-c3c(Cc4ccccc4)oc4ccccc34)cc2)cc1
IC50: 589 nM

CCCCc1oc2ccccc2c1-c1ccc(-c2ccc(OC)cc2)cc1
IC50: 166 nM

Cc1oc(-c2ccc(C(F)(F)F)cc2)nc1-c1ccc2c(Br)c(OC(Cc3ccccc3)C(=O)O)ccc2c1 (stereo unspecified)
IC50: 191 nM

CCc1oc2ccccc2c1-c1ccc(-c2ccc(O)cc2)cc1
IC50: 31.6 nM

Cc1cc(-c2ccc(-c3c(Cc4ccccc4)oc4ccccc34)cc2)cc(C)c1OS(=O)(=O)c1ccc(C(=O)O)c(O)c1
IC50: 38.9 nM

CCCCc1oc2ccccc2c1C(=O)c1ccc2cc(O)ccc2c1
IC50: 3.16 nM

O=C(O)C(Cc1ccccc1)Oc1ccc(-c2ccc(-c3coc4ccccc34)cc2)cc1 (stereo unspecified)
IC50: 288 nM

CCCCc1oc2ccccc2c1C(O)c1ccc2cc(O)ccc2c1 (stereo unspecified)
IC50: 912 nM

Oc1ccc(-c2ccc(-c3coc4ccccc34)cc2)cc1
IC50: 20 nM

Cc1oc(-c2ccc(C(F)(F)F)cc2)nc1-c1cccc(-c2ccc(OCC(=O)O)cc2)c1
IC50: 63.1 nM

Cc1oc(-c2ccc(C(F)(F)F)cc2)nc1-c1ccc(-c2ccc(O)cc2)cc1
IC50: 12.6 nM

CCCCc1oc2ccccc2c1C(=O)c1ccc(-c2ccc(O)cc2)cc1
IC50: 3.98 nM

Oc1ccc(-c2ccc(-c3c(Cc4ccccc4)oc4ccccc34)cc2)cc1Br
IC50: 275 nM

Cc1oc(-c2ccc(C(F)(F)F)cc2)nc1-c1cccc(-c2ccc(O)cc2)c1
IC50: 10 nM

O=C(O)C(Cc1ccccc1)Oc1ccc(-c2ccc(-c3c(Br)oc4ccccc34)cc2)cc1 (stereo unspecified)
IC50: 407 nM

Oc1c(Br)cc(-c2ccc(-c3c(Cc4ccccc4)oc4ccccc34)cc2)cc1Br
IC50: 479 nM

O=C(O)[C@H](Cc1ccccc1)Oc1ccc(-c2ccc(-c3c(Cc4ccccc4)sc4ccccc34)cc2)cc1-c1ccc(Cl)cc1
IC50: 52.5 nM

CCCc1cc(-c2ccc(-c3c(Cc4ccccc4)oc4ccccc34)cc2)ccc1O[C@@H](Cc1ccccc1)C(=O)O
IC50: 832 nM

O=C(O)[C@@H](Cc1ccccc1)Oc1c(Br)cc(-c2ccc(-c3c(Cc4ccccc4)oc4ccccc34)cc2)cc1Br
IC50: 38 nM

CCCCc1oc2ccccc2c1Cc1ccc2ccc(O)cc2c1
IC50: 776 nM

CCCCc1oc2ccccc2c1C(O)c1ccc2ccc(OCn3cnnn3)c(Br)c2c1 (stereo unspecified)
IC50: 912 nM

O=C(O)c1ccc(S(=O)(=O)Oc2ccc(-c3ccc(-c4c(Cc5ccccc5)oc5ccccc45)cc3)cc2[N+](=O)[O-])cc1O
IC50: 39.8 nM
